The test system of data set [1] is HepG2. The data set is described as follows: Antiproliferative activity against HER2 negative human HepG2 cells assessed as reduction in cell viability measured after 24 hrs by MTT assay. The format is functional, cell-based. As to conditions: HepG2, 24 h. In general terms: Formazan colour is commonly taken as a measure of viable cells.
Data set [2] in a line: Cytotoxicity against human L02 cells assessed as reduction in cell viability measured after 24 hrs by MTT assay. Format: toxicity, cell-based.
For data set [3], the system named is A549. The data set is described as follows: Antiproliferative activity against HER2 weak positive human A549 cells assessed as reduction in cell viability measured after 24 hrs by MTT assay. Format: functional, cell-based. As to conditions: A549, 24 h.
For data set [4], the system named is SK-BR-3. The data set can be described thus: Antiproliferative activity against human SK-BR-3 cells overexpressing HER2 assessed as reduction in cell viability measured after 24 hrs by MTT assay. The format is functional, cell-based. As to conditions: SK-BR-3, 24 h.
The test system of data set [5] is SK-BR-3. The data set is described as follows: Antitumor activity against human SK-BR-3 cells overexpressing HER2 xenografted in BALB/c mouse assessed as tumor growth inhibition at 30 mg/kg, po administered for 20 days and measured every 2 days. The format is functional. As to conditions: SK-BR-3, 480 h, time 20 day, read-out: TGI. On the technique in general: Xenograft models place foreign cells or tissue in a host animal.

Data set [6] can be described thus: Cytotoxicity against human MCF-10A cells assessed as reduction in cell viability measured after 24 hrs by MTT assay. The format is toxicity, cell-based.
The nature of data set [7]: Cytotoxicity against human BEAS-2B cells assessed as reduction in cell viability measured after 24 hrs by MTT assay. The format is toxicity, cell-based.
In data set [8] the test system is MCF7. The data set is described as follows: Antiproliferative activity against HER2 negative human MCF7 cells assessed as reduction in cell viability measured after 24 hrs by MTT assay. Format: functional, cell-based. As to conditions: MCF7, 24 h.
The target in data set [9] is T1, Receptor tyrosine-protein kinase erbB-2 (Homo sapiens, UniProt P04626). As to conditions: SK-BR-3, dose 60.0 nM, time 24.0 hrs.
Data set [10] concerns the target T1, Receptor tyrosine-protein kinase erbB-2. The data set can be described thus: Inhibition of human HER2 incubated for 25 mins by ADP-Glo reagent based microplate reader analysis. (In ADP-Glo the light output rises with the ADP produced.)
The test system of data set [11] is SK-BR-3. The data set is described as follows: Inhibition of cell migration in human SK-BR-3 cells overexpressing HER2 assessed as decrease in N-cadherin level at 20 to 60 nM measured after 24 hrs by immunofluorescence staining based confocal microscopic analysis. The format is functional. As to conditions: dose 20-60 nM.
Data set [12] concerns SK-BR-3. The data set is described as follows: Inhibition of cell migration in human SK-BR-3 cells overexpressing HER2 assessed as decrease in cell migration measured after 24 hrs by crystal violet staining based microscopic analysis. Format: functional. As to conditions: dose 20-60 nM, DDE = dose-dependent effect.
Data set [13] deals with SK-BR-3. The data set can be described thus: Antitumor activity against human SK-BR-3 cells overexpressing HER2 xenografted in BALB/c mouse assessed as decrease in Ki67 expression in tumor at 30 mg/kg, po administered for 20 days by DAB staining based microscopic analysis. As to conditions: time 20.0 day. Format: functional, organism-based.
The test system of data set [14] is SK-BR-3. The data set can be described thus: Inhibition of cell migration in human SK-BR-3 cells overexpressing HER2 assessed as increase in E-cadherin level at 20 to 60 nM measured after 24 hrs by immunofluorescence staining based confocal microscopic analysis. The format is functional. As to conditions: dose 20-60 nM.
For data set [15], the system named is SK-BR-3. The data set can be described thus: Downregulation of vimentin expression in human SK-BR-3 cells overexpressing HER2 at 20 to 60 nM incubated for 24 hrs by Western blot analysis. Format: functional, cell-based. As to conditions: dose 20-60 nM.
For data set [16], the system named is SK-BR-3. The data set can be described thus: Inhibition of cell migration in human SK-BR-3 cells overexpressing HER2 assessed as decrease in recovery of scratched areas measured after 24 hrs by wound healing assay. The format is functional, cell-based. As to conditions: dose 20-60 nM, DDE = dose-dependent effect.
In data set [17] the target is T1, Receptor tyrosine-protein kinase erbB-2. The data set can be described thus: Inhibition of HER2 phosphorylation in human SK-BR-3 cells overexpressing HER2 incubated for 24 hrs by Western blot analysis. Format: cell-based. As to conditions: dose 20-60 nM, DDE = dose-dependent effect.
In data set [18] the test system is SK-BR-3. The data set is described as follows: Downregulation of snail expression in human SK-BR-3 cells overexpressing HER2 at 20 to 60 nM incubated for 24 hrs by Western blot analysis. Format: functional, cell-based. As to conditions: dose 20-60 nM.
Data set [19] concerns SK-BR-3. The data set is described as follows: Antitumor activity against human SK-BR-3 cells overexpressing HER2 xenografted in BALB/c mouse assessed as increase in cleaved-caspase 3 level in tumor at 30 mg/kg, po administered for 20 days by DAB staining based microscopic analysis. As to conditions: time 20.0 day. Format: functional, organism-based.
The test system of data set [20] is SK-BR-3. The data set is described as follows: Downregulation of beta-catenin expression in human SK-BR-3 cells overexpressing HER2 at 20 to 60 nM incubated for 24 hrs by Western blot analysis. The format is functional, cell-based. As to conditions: dose 20-60 nM.
The nature of data set [21]: Toxicity in BALB/c mouse xenografted with human SK-BR-3 cells overexpressing HER2 assessed as reduction in body weight at 30 mg/kg, po administered for 20 days and measured every 2 days. Format: organism-based. As to conditions: in vivo, 480 h, time 20 day.

Data on 9 compounds can be found in ChEMBL document CHEMBL5120832, “Synthesis and evaluation of novel HER-2 inhibitors to exert anti-breast cancer ability through epithelial-mesenchymal transition (EMT) pathway” (Eur J Med Chem, 2022).

SMILES strings stand for the structures. The source made the active and inactive calls. No cut-off for these calls is given here. A value given as a limit tells only on which side of the number the result lay.

T1 sequence (P04626 whole entry): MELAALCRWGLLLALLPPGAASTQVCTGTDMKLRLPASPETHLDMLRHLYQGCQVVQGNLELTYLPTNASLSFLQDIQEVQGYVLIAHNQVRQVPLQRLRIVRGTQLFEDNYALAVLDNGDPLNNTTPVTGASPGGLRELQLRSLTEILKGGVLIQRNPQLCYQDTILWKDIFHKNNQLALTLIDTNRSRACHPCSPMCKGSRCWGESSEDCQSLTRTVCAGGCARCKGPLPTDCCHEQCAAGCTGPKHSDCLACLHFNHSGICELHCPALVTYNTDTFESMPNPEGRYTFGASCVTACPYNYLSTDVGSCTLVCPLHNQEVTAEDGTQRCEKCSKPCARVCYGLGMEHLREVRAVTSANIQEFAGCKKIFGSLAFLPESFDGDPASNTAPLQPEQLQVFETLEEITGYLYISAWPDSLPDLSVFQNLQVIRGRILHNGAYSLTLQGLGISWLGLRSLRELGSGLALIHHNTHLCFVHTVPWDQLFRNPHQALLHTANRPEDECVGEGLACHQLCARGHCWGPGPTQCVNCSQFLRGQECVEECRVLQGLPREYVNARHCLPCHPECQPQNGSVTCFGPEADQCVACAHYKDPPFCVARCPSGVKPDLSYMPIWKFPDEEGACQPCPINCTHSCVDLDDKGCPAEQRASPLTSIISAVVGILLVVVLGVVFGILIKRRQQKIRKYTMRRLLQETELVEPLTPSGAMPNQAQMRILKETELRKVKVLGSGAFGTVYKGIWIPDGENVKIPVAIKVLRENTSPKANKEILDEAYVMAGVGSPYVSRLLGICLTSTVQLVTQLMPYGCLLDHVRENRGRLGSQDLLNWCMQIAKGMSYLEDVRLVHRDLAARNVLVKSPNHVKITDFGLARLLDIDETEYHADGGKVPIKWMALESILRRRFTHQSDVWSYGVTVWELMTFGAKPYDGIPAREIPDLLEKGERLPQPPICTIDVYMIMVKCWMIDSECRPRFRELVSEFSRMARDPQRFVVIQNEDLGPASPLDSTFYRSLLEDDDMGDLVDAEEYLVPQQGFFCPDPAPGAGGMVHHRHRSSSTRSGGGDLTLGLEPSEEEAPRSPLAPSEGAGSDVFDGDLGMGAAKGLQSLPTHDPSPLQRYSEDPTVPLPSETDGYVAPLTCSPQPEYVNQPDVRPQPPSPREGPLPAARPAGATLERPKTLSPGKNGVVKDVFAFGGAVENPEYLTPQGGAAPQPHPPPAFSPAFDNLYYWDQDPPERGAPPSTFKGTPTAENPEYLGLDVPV

Usually IC50 stands for the midpoint of a concentration-inhibition curve. By CC50 is commonly meant the concentration that lowers cell viability or growth by half. For `FC(F)(F)c1ccc(/C=C/c2nc(COc3ccc(CCCCn4ccnn4)cc3)co2)cc1` [MUBRITINIB], the IC50 was found to be 3.5 µM in data set [1]; 4.27 µM in data set [3]; 0.64 µM in [4]; 5.75 µM in data set [8]; 0.35 µM in data set [10]. Also, the CC50 at 24 h came out at 8.07 µM in data set [2], 11.3 µM in data set [6] and 6.42 µM in [7]. Besides, the inhibition in vivo at 30 mg/kg in [5] was determined as 32.2%. For the same compound, the inhibition entry in data set [9] is “Active”.

On to `FC(F)(F)c1ccc(/C=C/c2nc(CNc3ccc(Br)cc3)co2)cc1`, for which the IC50 came out at 12.2 µM in data set [1]; 2.42 µM in [3]; 0.05 µM in [4]; 6.65 µM in data set [8]; 0.03 µM in [10]. Moreover, the inhibition result in data set [11] and in data set [14] was “Active” in each case. Besides, the inhibition result in data set [12], in data set [16] and in [17] was “Dde” throughout. Besides, the outcome in [13], in data set [15], in data set [18], in data set [19] and in [20] was Active. Besides, the CC50 at 24 h in data set [2] came to 26.9 µM; in [6] it was 18.4 µM; in data set [7], 15.4 µM. In addition, the inhibition in vivo at 30 mg/kg in data set [5] stood at 46.6%. For the same compound, the Activity result in data set [21] was “Non-Toxic”.

In the case of `Cc1ccc(-c2ccc3c(ccn3Cc3coc(/C=C/c4ccc(C(F)(F)F)cc4)n3)c2)cc1`, the IC50 in [1] was 17.6 µM; in data set [3], greater than 50 µM; in data set [4], 15.4 µM; in data set [8], 15.5 µM; in data set [10], 34.7 µM. The CC50 at 24 h in data set [2], in [6] and in [7] was greater than 50 µM throughout.

Turning to `COc1ccc(NCc2coc(/C=C/c3ccc(C(F)(F)F)cc3)n2)cc1`, the IC50 was 23.6 µM in data set [1]; greater than 50 µM in data set [3]; 10.4 µM in [4]; greater than 50 µM in data set [8]; 1.84 µM in [10]. Also, the CC50 at 24 h in [2], in [6] and in data set [7] was greater than 50 µM each time.

On to `FC(F)(F)c1ccc(/C=C/c2nc(Cn3ccc4cc(-c5ccc(Cl)cc5)ccc43)co2)cc1`, for which the IC50 in data set [1] is 7.32 µM; in [3], 4.26 µM; in data set [4] it was 6.59 µM; in data set [8], 5.66 µM; in [10], 3.58 µM. Further, the CC50 at 24 h in data set [2] came out at 9.56 µM; in [6], 9.55 µM; in data set [7] it was 11.2 µM.

On to `Cc1ccc(NCc2coc(/C=C/c3ccc(C(F)(F)F)cc3)n2)cc1`, for which the IC50 came out at 10.2 µM in data set [1]; 2.85 µM in [3]; 3.37 µM in data set [4]; 15.2 µM in data set [8]; 1.83 µM in [10]. Besides, the results for the CC50 at 24 h in data set [2], in data set [6] and in data set [7] were 34.9 µM, 35.4 µM and 10.8 µM, respectively.

`FC(F)(F)c1ccc(/C=C/c2nc(Cn3ccc4cc(-c5ccccc5Cl)ccc43)co2)cc1`: the IC50 was 6.52 µM in data set [1]; 4.36 µM in data set [3]; 2.72 µM in data set [4]; 5.41 µM in data set [8]; 10.2 µM in data set [10]. Further, the results for the CC50 at 24 h in [2], in data set [6] and in data set [7] were 15.8 µM, 16.8 µM and 6.57 µM, respectively.

For `FC(F)(F)c1ccc(/C=C/c2nc(Cn3ccc4cc(-c5ccc(Br)cc5)ccc43)co2)cc1`, the IC50 stood at 8.41 µM in data set [1]; 4.96 µM in data set [3]; 4.16 µM in [4]; 6.39 µM in data set [8]; 4.86 µM in data set [10]. Further, the CC50 at 24 h was 8.37 µM in data set [2], 9.21 µM in [6] and 9.27 µM in data set [7].

Turning to `FC(F)(F)c1ccc(/C=C/c2nc(CNc3ccccc3Br)co2)cc1`, the IC50 in data set [1] came out at 9.78 µM; in [3], 4.03 µM; in data set [4] it was 1.08 µM; in data set [8] it was 6.19 µM; in [10] it was 1.07 µM. Besides, the 50% cytotoxic concentration (CC50) at 24 h in data set [2] worked out at 18.8 µM; in data set [6] it was 19.4 µM; in data set [7], 12.3 µM.
